Source: US7094789B2, “5-substituted isoquinoline derivatives” (Asahi Kasei Pharma Corporation, priority 2002, dated 2006)
Structures can show the parent of a compound that is named as a salt.

How the values were obtained:
[1] = system: ovalbumin-induced constriction of respiratory tract; assay: Respiratory tract constriction suppression action (Test Example 3); assay type: in vivo, Hartley guinea pigs; settings: ovalbumin-immunized guinea pigs; test medicament via hind leg vein; 15 minutes after administration
Experimental: Four-week old Hartley guinea pigs (male) were immunized by intraperitoneal administration of ovalbumin (Sigma, Grade V) in amounts of 1 mg for each animal on the day on which the experiment was started, 3 mg for each animal after 2 days, and 10 mg for each animal after 4 days. Twelve to fourteen days after the final immunization, the ovalbumin-immunized guinea pigs were anesthetized by intraperitoneal administration of about 40 mg/kg of pentobarbital (Somnopentyl), and the tracheas were taken out. Subsequently, a cannula (SP-110, Natsume) was inserted into each trachea, and one end of the cannula was connected to an artificial respirator (Model-b83, Harvard). The aeration conditions were set at 6 ml per kilogram and 60 times per 1 minute. Further, a cannula for medicament administration (JMS wing needle 23G 3/4) was inserted into a hind leg vein. Myoblock (Organon Technica) was administered in an amount of 0.5 mg/kg from the cannula inserted into the hind leg vein to stop the spontaneous breathing, and after 2 or 3 minutes, 0.3 mg/kg of ovalbumin was administered to induce constriction of respiratory tract. The increase of airway resistance value 2 minutes after the induction (measurement apparatuses: pressure transducer TR-603T, respiratory amplifier AR-601G, and recorder RTA-3100, Nihon Kohden Corp.) was confirmed to be above 80 cm H2O or higher, and then, a solution of a test medicament was administered from the cannula inserted into the hind leg vein, and the airway resistance value was continuously measured for 15 minutes after the administration to determine the effect.

[2] = biological target: T1, myosin light chain phosphorylation enzyme (MLCK) (Gallus gallus, UniProt P11799); assay: Action on myosin light chain phosphorylation enzyme (MLCK) activity; assay type: biochemical, chicken; settings: for IC50: MLCK from chicken gizzard smooth muscle, ELISA, 100 μM ATP, read-out: Myosin light chain phosphorylation enzyme inhibitory action IC50; for inhibition of MLCK: result in words
T1 construct: purified from chicken gizzard smooth muscle by a conventional method; from tissue; host or cells: chicken gizzard smooth muscle
Experimental: A myosin light chain phosphorylation enzyme (MLCK) was purified from chicken gizzard smooth muscle by a conventional method (Yoshida, M., et al., J. Biochem., 99, 1027–1036 (1986)). The myosin regulatory light chain as a substrate was purified from the chicken gizzard smooth muscle by a conventional method (Grand, R. J., et al., Biochem. J., 211, 267–272 (1983)). The MLCK activity was measured by ELISA using pLC1 described in Test Example 1 (Sakurada, K., et al., J. Biochem., 115, 18–21 (1994)). The myosin regulatory light chain was diluted in phosphate-buffered saline (PBS, Sigma) to a concentration of 5.0 µg/ml, added to 96-well Immunoplate (Nunc) in a volume of 100 μl per well and left stand overnight at 4° C. Each well was washed with PBS, and 25 mM Tris/HCl buffer containing 100 μM ATP, 3 mM MgCl2, 1 mM CaCl2, 100 ng/ml of calmodulin (Sigma) and 100 ng/ml of MLCK (pH 7.4, Buffer A) was added to each well and incubated at 30° C. for 10 minutes. In a volume of 100 μl each of 20% aqueous phosphoric acid solution was added to each well to terminate the enzymatic reaction. Each well was washed with 25 mM Tris/HCl buffer (TTBS) containing 0.1% Tween 20, and then 100 μl each of pLC1 described in Test Example 1 was added to each well and incubated at room temperature for 90 minutes.
Each well was washed with TTBS, and then 100 μl of the HRP-labeled rabbit anti-mouse IgG antibodies (Bio-Rad) were added to each well and incubated at room temperature for 90 minutes. Each well was washed with TTBS, and then 25 mM citrate buffer (pH 5.0) containing orthophenylenediamine (Sigma) as a substrate of HRP and aqueous hydrogen peroxide (0.03%) was added in a volume of 100 μl per well and incubated at room temperature for 5 minutes. 50 μl of 4 N sulfuric acid was added to each well to terminate the reaction, and then absorbance was measured by using an immunoplate reader (Bio-Rad).

intraocular pressure = assay: Intraocular pressure reducing action (Test Example 4); assay type: in vivo, Japanese white rabbit; settings: for inhibition in vivo at 1 %, 50 µL: Oryctolagus cuniculus, topical, 1% aqueous solution, 50 μl dropped to the left eye, after 2 hours, read-out: Intraocular pressure reducing action (reduction ratio) (%); for intraocular pressure reducing activity: result in words, rabbit
Experimental: A Japanese white rabbit having a body weight of about 2 kg was placed in a positioner and naturalized for one week before the experiment. An ophthalmologic local anesthesant (Benoxil) was administered to the left eye, and then intraocular pressure was measured by using a tonometer (Classic 30, Solan). The initial value of the intraocular pressure was measured, then 50 μl of a test compound (1% aqueous solution) was dropped to the left eye, and after 2 hours, the intraocular pressure was measured. The intraocular pressure reducing action of the test compounds is shown in Table 7 mentioned below as ratios (%) of reduction of intraocular pressure based on the initial value of the intraocular pressure.

[3] = system: thoracic aorta constricted with phenylephrine; assay: Vasoconstriction inhibitory action (Test Example 2); set-up: species or system Rats (Wistar); settings: result in words; rat thoracic aorta, phenylephrine
Text: Rats (Wistar, 11-week old) were bleeded to death and laparotomized to take out the thoracic aorta. That aorta was cut into a ring of a length of about 3 mm in a conventional manner (Asano, T., et al., J. Pharmacol. Exp. Ther., 241, pp. 1033–1040 (1987)) and hung in 10-ml organ bath filled with Krebs-Hensright nutrient solution bubbled with a mixed gas of 95% O2 and 5% CO2. One end of the blood vessel was connected to an isometric transducer (FD Pickup TB-912T, Nihon Kohden) and applied with 2.5 g of resting tension, and constriction and relaxation reactions of the aorta were recorded. The aorta was constricted with phenylephrine (1 μM, Sigma) and then added with a test compound (1 μM), and the vasoconstriction inhibitory action thereof was observed. The vasoconstriction inhibitory actions of the test compounds are shown in Table 6 mentioned below as the relaxation ratios, which are based on the vasoconstriction with phenylephrine immediately before the addition of the test compound taken as 100%.

| SMILES | constriction of respiratory tract (airway resistance value) [1] | inhibition in vivo at 1 %, 50 µL (intraocular pressure) [%] | vasoconstriction inhibitory action [3] | inhibition of MLCK [2] | other results |
| --- | --- | --- | --- | --- | --- |
| c1cc(NC2CCCNC2)c2ccncc2c1 (racemic) [Example 29, 3-N-(5-Isoquinolyl)aminopiperidine hydrochloride] | significantly improved the constriction of respiratory tract | – | – | – | – |
| NCCCN(CCCc1ccccc1)S(=O)(=O)c1cccc2cnccc12 [Example 1, N-[(5-Isoquinolyl)sulfonyl]-N-(3-phenylpropyl)-1,3-propylenediamine hydrochloride] | – | – | – | – | IC50 [2]: > 50 µM |
| NCCN(CCS(=O)(=O)c1ccccc1)S(=O)(=O)c1cccc2cnccc12 [Example 7, N-[(5-Isoquinolyl)sulfonyl]-N-[2-(phenylsulfonyl)ethyl]ethylenediamine hydrochloride] | – | 30.1 | – | – | IC50 [2]: > 50 µM |
| Cl.NCCCN(CCCc1ccccc1)S(=O)(=O)c1cccc2c(N)nccc12 [Example 8, N-[(1-Amino-5-isoquinolyl)sulfonyl]-N-(3-phenylpropyl)-1,3-propylenediamine hydrochloride] | – | – | significant vasoconstriction inhibitory action | – | IC50 [2]: > 50 µM |
| NCCCOc1cccc2c(N)nccc12 [Example 10, 3-[(1-Amino-5-isoquinolyl)oxy]propylamine hydrochloride] | – | – | – | – | IC50 [2]: > 30 µM |
| Cl.Nc1nccc2c(OCC3CCCNC3)cccc12 (stereo not shown) [Example 11, 3-[(1-Amino-5-isoquinolyl)oxy]methylpiperidine hydrochloride] | significantly improved the constriction of respiratory tract | – | – | – | – |
| Cl.NCCN(CCS(=O)(=O)c1ccccc1)S(=O)(=O)c1cccc2c(O)nccc12 [Example 12, N-[(1-Hydroxy-5-isoquinolyl)sulfonyl]-N-[2-(phenylsulfonyl)ethyl]ethylenediamine hydrochloride] | significantly improved the constriction of respiratory tract | 13.3 | significant vasoconstriction inhibitory action | – | – |
| Cl.c1cc(OC2CCNCC2)c2ccncc2c1 [Example 27, 4-[(5-Isoquinolyl)oxy]piperidine hydrochloride] | – | 12.5 | – | did not inhibit MLCK | – |
| Cl.Fc1cncc2cccc(NC3CCNCC3)c12 [Example 104, 4-(4-Fluoro-5-isoquinolyl)aminopiperidine hydrochloride] | – | 18.8 | – | did not inhibit MLCK | – |
| C=Cc1cncc2cccc(NC3CCNCC3)c12.Cl [Example 112, 4-(4-Vinyl-5-isoquinolyl)aminopiperidine hydrochloride] | – | 25 | significant vasoconstriction inhibitory action | did not inhibit MLCK | – |
| Cl.Clc1cncc2cccc(NC3CCNCC3)c12 [Example 118, 4-(4-Chloro-5-isoquinolyl)aminopiperidine hydrochloride] | significantly improved the constriction of respiratory tract | 25 | – | – | – |
| Cc1cncc2cccc(N[C@H]3CC[C@@H](N)CC3)c12.Cl [Example 120, Cis-N-(4-methyl-5-isoquinolyl)-1,4-cyclohexanediamine hydrochloride] | – | – | significant vasoconstriction inhibitory action | did not inhibit MLCK | intraocular pressure reducing activity (intraocular pressure): significant intraocular pressure reducing activity |
| Cc1cncc2cccc(N[C@H]3CC[C@H](N)CC3)c12.Cl [Example 121, Trans-N-(4-methyl-5-isoquinolyl)-1,4-cyclohexanediamine hydrochloride] | significantly improved the constriction of respiratory tract | 31.3 | significant vasoconstriction inhibitory action | – | – |
| Cl.NCCCN(CCCc1cccc(C(=O)O)c1)S(=O)(=O)c1cccc2cnccc12 [Example 128, N-[(5-Isoquinolyl)sulfonyl]-N-[3-(3-carboxy)phenylpropyl]-1,3-propylenediamine hydrochloride] | – | – | – | did not inhibit MLCK | – |
| COC(=O)c1ccc(CCCN(CCCN)S(=O)(=O)c2cccc3cnccc23)cc1.Cl [Example 130, N-[(5-Isoquinolyl)sulfonyl]-N-[3-(4-methoxycarbonyl)phenylpropyl]-1,3-propylenediamine hydrochloride] | – | – | – | did not inhibit MLCK | – |
| Cl.N[C@H]1CC[C@H](Oc2cccc3cncc(Br)c23)CC1 [Example 133, Trans-4-[(4-bromo-5-isoquinolyl)oxy]cyclohexylamine hydrochloride] | significantly improved the constriction of respiratory tract | – | – | – | intraocular pressure reducing activity (intraocular pressure): significant intraocular pressure reducing activity |
| Cc1cncc2cccc(O[C@H]3CC[C@H](N)CC3)c12.Cl [Example 140, Trans-4-[(4-methyl-5-isoquinolyl)oxy]cyclohexylamine hydrochloride] | significantly improved the constriction of respiratory tract | – | significant vasoconstriction inhibitory action | – | intraocular pressure reducing activity (intraocular pressure): significant intraocular pressure reducing activity |
| Cl.Nc1nccc2c(O[C@H]3CC[C@@H](N)CC3)cccc12 [Example 141, Cis-4-[(1-amino-5-isoquinolyl)oxy]cyclohexylamine hydrochloride] | – | – | – | did not inhibit MLCK | – |
| Cc1cncc2cccc(NC3CCN(CCO)CC3)c12.Cl [Example 146, 1-(2-Hydroxyethyl)-4-(4-methyl-5-isoquinolyl)aminopiperidine hydrochloride] | significantly improved the constriction of respiratory tract | – | significant vasoconstriction inhibitory action | – | intraocular pressure reducing activity (intraocular pressure): significant intraocular pressure reducing activity |
